This is an account of results in patent US20230203043A1, “NOVEL IMIDAZOPYRAZINE DERIVATIVES” (Hoffmann-La Roche Inc., priority 2020, published 2023).

What is called IC90 is the concentration at which the effect reaches the 90% level.

Counter-ions that a name gives are not always drawn.

One test relates to Acinetobacter baumannii ATCC17961. The test is described as follows: Antimicrobial susceptibility testing: 90% growth inhibitory concentration (IC90) determination in Iso-Sensitest broth, OD600 growth. Particulars: Acinetobacter baumannii, ATCC17961, 16 h, read-out: A. baumannii ATCC 17961 IC90 (uM), strain ATCC 17961, OD600 growth over 16 h. It counts as cell-based. An outline of the steps: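 Twofold compound dilutions (e.g. 50 to 0.097 μM final) in Iso-Sensitest broth with ~5×10^(5) CFU/ml, 35±2 °C. OD600 read every 20 min over 16 h; IC90 from growth inhibition during logarithmic phase.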
As to `N#CCn1cc(-c2cnc3c(Nc4ccc(C(=O)NOCCN)c(Cl)c4)nccn23)c(C(F)(F)F)n1` [Example 201, N-(2-aminoethoxy)-2-chloro-4-[[3-[1-(cyanomethyl)-3-(trifluoromethyl)pyrazol-4-yl]imidazo[1,2-a]pyrazin-8-yl]amino]benzamide formate], the IC90 came out at 0.486 µM. Still for that read-out and setting: as for `Cn1nccc1Cn1cc(-c2cnc3c(Nc4ccc(C(=O)N5CCNCC5)c(Cl)c4)nccn23)c(C(F)(F)F)n1` [Example 181, [2-chloro-4-[[3-[1-[(2-methylpyrazol-3-yl)methyl]-3-(trifluoromethyl)pyrazol-4-yl]imidazo[1,2-a]pyrazin-8-yl]amino]phenyl]-piperazin-1-ylmethanone formate], the figure is 0.293 µM; as for `CCc1cc(Nc2nccn3c(-c4cn(CCCO)nc4C(F)(F)F)cnc23)ccc1C(=O)NCCOCCN` [Example 312, N-[2-(2-aminoethoxy)ethyl]-2-ethyl-4-[[3-[1-(3-hydroxypropyl)-3-(trifluoromethyl)pyrazol-4-yl]imidazo[1,2-a]pyrazin-8-yl]amino]benzamide formate], 0.839 µM. With `Cc1cc(Nc2nccn3c(-c4cn(C)nc4C(F)(F)F)cnc23)ccc1C(=O)N1CCN(C(=O)[C@@H]2CCNC[C@@H]2O)CC1` [Example 474, formic acid; [4-[(3R,4R)-3-hydroxypiperidine-4-carbonyl]piperazin-1-yl]-[2-methyl-4-[[3-[1-methyl-3-(trifluoromethyl)pyrazol-4-yl]imidazo[1,2-a]pyrazin-8-yl]amino]phenyl]methanone], the IC90 came to 1.34 µM. On the same count and under the same terms, as for `Cc1cc(Nc2nccn3c(-c4cn(CC#N)nc4C(F)(F)F)cnc23)cc(F)c1C(=O)N1CCN(C(=O)[C@H](C)N)CC1` [Example 682, 2-(4-(8-((4-(4-(L-alanyl)piperazine-1-carbonyl)-3-fluoro-5-methylphenyl)amino)imidazo[1,2-a]pyrazin-3-yl)-3-(trifluoromethyl)-1H-pyrazol-1-yl) acetonitrile formate], the figure is 0.329 µM. Consider `N[C@@H]1CCN(C(=O)N2CCN(C(=O)c3ccc(Nc4nccn5c(-c6c[nH]nc6C(F)(F)F)cnc45)cc3Cl)CC2)C1` [Example 326, [4-[(3R)-3-aminopyrrolidine-1-carbonyl]piperazin-1-yl]-[2-chloro-4-[[3-[3-(trifluoromethyl)-1H-pyrazol-4-yl]imidazo[1,2-a]pyrazin-8-yl]amino]phenyl]methanone formate], for which the concentration for an effect of 90% (IC90) is 0.135 µM. For the compound `Cn1ccc(Cn2cc(-c3cnc4c(Nc5ccc(C(=O)N6CCNCC6)c(Cl)c5)nccn34)c(C(F)(F)F)n2)n1` [Example 183, [2-chloro-4-[[3-[1-[(1-methylpyrazol-3-yl)methyl]-3-(trifluoromethyl)pyrazol-4-yl]imidazo[1,2-a]pyrazin-8-yl]amino]phenyl]-piperazin-1-ylmethanone formate], the IC90 stood at 0.372 µM.

Regarding `Cc1cc(Nc2nccn3c(-c4cn(CC#N)nc4C(F)(F)F)cnc23)ccc1C(=O)N[C@H](C)C(=O)N1CCC(N)CC1` [Example 690, N-[(1R)-2-(4-amino-1-piperidyl)-1-methyl-2-oxo-ethyl]-4-[[3-[1-(cyanomethyl)-3-(trifluoromethyl)pyrazol-4-yl]imidazo[1,2-a]pyrazin-8-yl]amino]-2-methyl-benzamide formate], the IC90 was 0.351 µM.

For `CCc1cc(Nc2nccn3c(-c4cn(CC5CC(F)(F)C5)nc4C(F)(F)F)cnc23)ccc1C(=O)NCCOCCN` [Example 304, N-[2-(2-aminoethoxy)ethyl]-4-[[3-[1-[(3,3-difluorocyclobutyl)methyl]-3-(trifluoromethyl)pyrazol-4-yl]imidazo[1,2-a]pyrazin-8-yl]amino]-2-ethylbenzamide formate], the IC90 worked out at 0.253 µM. `CCc1cc(Nc2nccn3c(-c4c[nH]nc4C(F)(F)F)cnc23)ccc1C(=O)NCCCNC(=O)[C@@H](C)N` [Example 677, (R)-N-(3-(2-aminopropanamido)propyl)-2-ethyl-4-((3-(3-(trifluoromethyl)-1H-pyrazol-4-yl)imidazo [1,2-a]pyrazin-8-yl)amino)benzamide formate]: the IC90 turned out to be 0.317 µM. Take `CNC(=O)c1ccc(Nc2nccn3c(-c4cn(Cc5cccc(CCN)c5)nc4C(F)(F)F)cnc23)cc1Cl` [Example 595, 4-((3-(1-(3-(2-aminoethyl)benzyl)-3-(trifluoromethyl)-1H-pyrazol-4-yl)imidazo[1,2-a]pyrazin-8-yl)amino)-2-chloro-N-methylbenzamide formate]: the IC90 was 0.186 µM. Consider `CCc1cc(Nc2nccn3c(-c4cn(CC(F)F)nc4C(F)(F)F)cnc23)ccc1C(=O)N1CCC12CNC2` [Example 559, (4-((3-(1-(2,2-difluoroethyl)-3-(trifluoromethyl)-1H-pyrazol-4-yl)imidazo[1,2-a]pyrazin-8-yl)amino)-2-ethylphenyl)(1,6-diazaspiro[3.3]heptan-1-yl)methanone formate], for which the IC90 was 0.398 µM.

Staying with this test, now noted: Acinetobacter baumannii, ATCC17961, 16 h, strain ATCC 17961, OD600 growth over 16 h, read-out: A. baumannii ATCC 17961 IC90.
Regarding `C=CCn1cc(-c2cnc3c(Nc4ccc(C(=O)N5CCN(C(=O)[C@@H]6C[C@@H](O)CN6)CC5)c(CC)c4)nccn23)c(C(F)F)n1` [Example 774, (4-(4-((3-(1-allyl-3-(difluoromethyl)-1H-pyrazol-4-yl)imidazo[1,2-a]pyrazin-8-yl)amino)-2-ethylbenzoyl)piperazin-1-yl)((2S,4R)-4-hydroxypyrrolidin-2-yl)methanone], the IC90 was found to be 0.986 µM. As to `CCc1cc(Nc2nccn3c(-c4cn(CCF)nc4C(F)(F)F)cnc23)ccc1C(=O)NCC1CC1N` (stereo not drawn) [Example 640, N-((2-aminocyclopropyl)methyl)-2-ethyl-4-((3-(1-(2-fluoroethyl)-3-(trifluoromethyl)-1H-pyrazol-4-yl)imidazo[1,2-a]pyrazin-8-yl)amino) benzamide formate], the IC90 came out at 0.229 µM. On the same count and under the same terms, as for `CCc1cc(Nc2nccn3c(-c4cn(CC(F)F)nc4C(F)F)cnc23)ccc1C(=O)N1CCN(C(=O)[C@@H](C)N)CC1` [Example 777, (R)-2-amino-1-(4-(4-((3-(1-(2,2-difluoroethyl)-3-(difluoromethyl)-1H-pyrazol-4-yl)imidazo[1,2-a]pyrazin-8-yl)amino)-2-ethylbenzoyl)piperazin-1-yl)propan-1-one], the figure is 1.02 µM; as for `C=CCn1cc(-c2cnc3c(Nc4ccc(C(=O)N[C@H](C)CN)c(CC)c4)nccn23)c(C(F)(F)F)n1` [Example 108, N-[(2R)-1-aminopropan-2-yl]-2-ethyl-4-[[3-[1-prop-2-enyl-3-(trifluoromethyl)pyrazol-4-yl]imidazo[1,2-a]pyrazin-8-yl]amino]benzamide], 0.302 µM. Same read-out and setting: as for `C#CCn1cc(-c2cnc3c(Nc4ccc(C(=O)N5CCN(C(=O)C6CCNCC6)CC5)c(CC)c4)nccn23)c(C(F)F)n1` [Example 730, (4-(4-((3-(3-(difluoromethyl)-1-(prop-2-yn-1-yl)-1H-pyrazol-4-yl)imidazo[1,2-a]pyrazin-8-yl)amino)-2-ethylbenzoyl)piperazin-1-yl)(piperidin-4-yl) methanone], the figure is 0.475 µM. With `CNC(=O)c1ccc(Nc2nccn3c(-c4cn(C5CNC5)nc4C(F)(F)F)cnc23)cc1Cl` [Example 348, 4-[[3-[1-(azetidin-3-yl)-3-(trifluoromethyl)pyrazol-4-yl]imidazo[1,2-a]pyrazin-8-yl]amino]-2-chloro-N-methylbenzamide hydrochloride], the IC90 turned out to be 1.55 µM.

For `Cc1cc(Nc2nccn3c(-c4cn(CC#N)nc4C(F)(F)F)cnc23)cc(F)c1C(=O)NCCOCCN` [Example 75, N-[2-(2-aminoethoxy)ethyl]-4-[[3-[1-(cyanomethyl)-3-(trifluoromethyl)pyrazol-4-yl]imidazo[1,2-a]pyrazin-8-yl]amino]-2-fluoro-6-methylbenzamide], the IC90 was 1.7 µM.

With `N#CCn1cc(-c2cnc3c(Nc4ccc(C(=O)N5CCN(C(=O)CN)CC5)c(Cl)c4)nccn23)c(C(F)(F)F)n1` [Example 132, 2-[4-[8-[4-[4-(2-aminoacetyl)piperazine-1-carbonyl]-3-chloroanilino]imidazo[1,2-a]pyrazin-3-yl]-3-(trifluoromethyl)pyrazol-1-yl]acetonitrile], the concentration for an effect of 90% (IC90) amounted to 0.136 µM. With `O=C(c1ccc(Nc2nccn3c(-c4cn(C(F)F)nc4C(F)(F)F)cnc23)cc1Cl)N1CC2(CNC2)C1` [Example 79, [2-chloro-4-[[3-[1-(difluoromethyl)-3-(trifluoromethyl)pyrazol-4-yl]imidazo[1,2-a]pyrazin-8-yl]amino]phenyl]-(2,6-diazaspiro[3.3]heptan-2-yl)methanone], the IC90 was found to be 0.222 µM. Still for that read-out and setting: as for `CCc1cc(Nc2nccn3c(-c4cn(CC#N)nc4C(F)(F)F)cnc23)ccc1C(=O)NCCCNC(=O)[C@H]1C[C@@H](N)C1` [Example 482, N-(3-((1s,3s)-3-aminocyclobutane-1-carboxamido)propyl)-4-((3-(1-(cyanomethyl)-3-(trifluoromethyl)-1H-pyrazol-4-yl)imidazo[1,2-a]pyrazin-8-yl)amino)-2-ethylbenzamide formate], the figure is 0.174 µM.

The same test, now with this note: strain ATCC 17961, OD600 growth over 16 h, read-out: A. baumannii ATCC 17961 IC90.
Turning to `C=CCn1cc(-c2cnc3c(Nc4ccc(C(=O)NCCOCC(C)N)c(CC)c4)nccn23)c(C(F)(F)F)n1` (stereo in doubt) [Example 146, N-[2-[(2S)-2-aminopropoxy]ethyl]-2-ethyl-4-[[3-[1-prop-2-enyl-3-(trifluoromethyl)pyrazol-4-yl]imidazo[1,2-a]pyrazin-8-yl]amino]benzamide], the IC90 worked out at 0.028 µM. Same read-out and setting: as for `C[C@H](NC(=O)c1ccc(Nc2nccn3c(-c4c[nH]nc4C(F)(F)F)cnc23)cc1Cl)C(=O)N1CCNCC1` [Example 140, 2-chloro-N-[(2S)-1-oxo-1-piperazin-1-ylpropan-2-yl]-4-[[3-[3-(trifluoromethyl)-1H-pyrazol-4-yl]imidazo[1,2-a]pyrazin-8-ylamino]benzamide formate], the figure is 3.31 µM.
